Data as given in paper PMC3433420 (PLoS ONE, 2012).
Read-outs that look alike come from different tables or passages of the source. Residues, ends and D or L forms follow the SMILES beside them.

Experiments:
[1] = target: SH2 and PTB domains; details: ref Kaushansky et al. Mol Biosys 2008, cited from earlier work
Text: Supplement pone.0044471.s022.xlsx, sheet "Most recent PM interactions" | column: Kd || Supplement pone.0044471.s022.xlsx, sheet "All original PM interactions" | column: Kd

[2] = system: 93 human SH2 domains and 2 phosphotyrosine binding (PTB) domains; assay: FP saturation binding assay, whole domain panel (protein named per line or not at all)
Experimental: (See Figure 1A) Rhodamine-labeled peptides were dissolved in assay buffer (20 mM HEPES, 100 mM KCl, 0.1% Tween-20, 5 mM DTT, pH 7.8), diluted to a concentration of 20 nM, and plated into black 384-well plates (Corning, Corning, NY) at 5 µL/well using a Perkin Elmer EP3 pipetting workstation (V&P Scientific, Inc., San Diego, CA). SH2, PTB, and thioredoxin control proteins were plated into the first column of 2 mL 96-well plates (Corning) at a concentration of 20 µM and serially diluted 1∶2 into freezing buffer (300 mM NaCl, 50 mM Na2PO4, pH 8, 20% glycerol v/v) eleven times using a Tecan Freedom EVO 100 workstation (Tecan, Männedorf, Switzerland). For the interaction assay, 5 µL of each of the twelve protein concentrations was added to the peptide-containing 384-well plates via the EP3 resulting in a protein dilution range of 0.002–10 µM and a final volume of 10 µL; peptide concentration was fixed at 10 nM. Peptide/protein samples were incubated for 20 minutes at room temperature in the dark and fluorescence polarization (FP) was measured in an Analyst GT multimode reader (Molecular Devices, Sunnyvale, CA) with excitation and emission wavelengths of 530 nm and 555 nm, respectively. Experimental values were output as millipolarization (mP) units and imported into MATLAB (The MathWorks, Inc., Natick, MA) in which equation (1) was used to determine dissociation constants (KDs) for each protein/peptide pairing by least squares nonlinear regression. [drawing 1] (1)
To scale up the number of interaction measurements while minimizing variation introduced by human intervention, we utilized an automated robotic platform (Figure 1A; see experimental procedures and Supplementary Methods) to transfer, incubate, and measure the fluorescence polarization (FP) induced from interactions of a titration series of SH2 domains with synthetic rhodamine-labeled ErbB phosphopeptides. Experimental values were output as millipolarization (mP) units and equation (1) was used to fit apparent midpoint dissociation constants (KDs) for each protein/peptide pair using non-linear regression (see experimental procedures).
For this interaction analysis, we synthesized and queried the interaction of phosphopeptides corresponding to 89 of 92 ErbB family intracellular tyrosines with 93 SH2 domains. Because nine peptide sequences share 100% identity between the receptors in the 4 to 7 amino acids C-terminal to the phosphorylated tyrosine, our peptide set consisted of 81 phosphopeptides corresponding to the 89 unique tyrosine containing sequences (Table S2). This peptide set represents a 50% increase over the three PM studies performed to date. We were therefore able to obtain a more systematic and unbiased view of the relative SH2 domain recruitment potential of each receptor. Although most ErbB receptor auto-phosphorylation sites have been detected frequently by mass spectrometry because of their high relative modification stoichiometry, non-auto-phosphorylation sites have been reported less frequently in the literature (Table S3). We reasoned that many physiologically relevant and uncharacterized ErbB tyrosines of low phosphorylation stoichiometry may exist and that our comprehensive interaction analysis might implicate their importance in mediating physiological interactions. We tested the majority of interactions (7099/8160 (87.0%); Figure S3) three or more times and reported standard error for all interactions that were detected in at least three FP runs (Table S4). […] Analysis of this polarization data may be useful for inferring how SH2 proteins bind to different peptide sequences. Larger proteins and proteins binding closer to the N-terminal rhodamine tag of a given peptide would be expected to induce higher maximal polarization (the calculated maximal polarization value at infinite protein concentration) than proteins binding farther from the tag. In addition to phosphopeptides, we queried a representative set of 27 non-phosphopeptides against the entire domain set. […]

[3] = target: T1, PLCG1-C SH2 domain (Homo sapiens, UniProt P19174); assay: biochemical; type: binding; details: protein PLCG1-C; high-confidence ErbB interactions; mean of replicate hits
T1 construct: The 6X His-tagged SH2 domain proteins used in the assay, PLCG1-C, SHC4, VAV2; thioredoxin; made in house; host or cells: E. coli BL21(DE3)pLysS
T1 sequence (P19174 668-756 limits assumed): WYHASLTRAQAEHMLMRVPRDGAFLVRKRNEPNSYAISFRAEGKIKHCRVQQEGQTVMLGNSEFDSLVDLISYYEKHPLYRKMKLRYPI

[4] = target: GRB7 SH2 domain (Homo sapiens, UniProt Q14451); assay: FP saturation binding assay
[5] = target: PIK3R2-NC tandem SH2 domains (Homo sapiens, UniProt O00459); assay: FP saturation binding assay
Sequence of PIK3R2-NC tandem SH2 domains (O00459 330-716 limits assumed): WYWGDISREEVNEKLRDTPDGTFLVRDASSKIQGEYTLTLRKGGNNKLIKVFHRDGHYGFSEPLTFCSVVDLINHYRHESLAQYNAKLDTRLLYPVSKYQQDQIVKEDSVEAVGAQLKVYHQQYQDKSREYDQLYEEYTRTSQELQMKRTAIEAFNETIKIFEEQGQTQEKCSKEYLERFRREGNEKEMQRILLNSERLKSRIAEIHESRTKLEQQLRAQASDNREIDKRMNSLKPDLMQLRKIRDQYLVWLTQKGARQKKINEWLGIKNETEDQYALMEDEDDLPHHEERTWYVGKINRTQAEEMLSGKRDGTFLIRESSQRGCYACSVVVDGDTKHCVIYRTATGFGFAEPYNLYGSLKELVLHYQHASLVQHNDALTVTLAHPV

Sequence of GRB7 SH2 domain (Q14451 431-527 limits assumed): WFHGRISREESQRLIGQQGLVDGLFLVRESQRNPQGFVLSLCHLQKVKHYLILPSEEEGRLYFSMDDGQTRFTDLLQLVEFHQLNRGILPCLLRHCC

IGSQpYLLNWCVQd [ErbB1 pY813, N-terminally rhodamine-labeled 13-mer phosphopeptide]
Kd ([1]; protein ABL2): 200 nM
Kd ([1]; protein GRB10): 350 nM
Kd ([1]; protein ITK): 310 nM
Kd ([1]; protein NCK2): 200 nM
Kd ([1]; protein PIK3R1-C): 1850 nM
Kd ([1]; protein PIK3R1-NC): 1820 nM
Kd ([1]; protein PIK3R3-NC): 1870 nM
Kd ([1]; protein RASA1-C): 1950 nM
Kd ([1]; protein RASA1-NC): 160 nM
Kd ([1]; protein SH2D1B): 1600 nM
Kd ([1]; protein SH2D3C): 50 nM
Kd ([1]; protein SHB): 280 nM
Kd ([1]; protein SHE): 1380 nM
Kd ([1]; protein SHF): 1060 nM
Kd ([1]; protein SRC): 80 nM
Kd ([1]; protein SYK-NC): 240 nM
Kd ([1]; protein TENC1): 1150 nM
Kd ([1]; protein TNS3): 1890 nM
Kd ([1]; protein VAV1): 370 nM
Kd ([1]; protein VAV2): 470 nM
Kd ([1]; protein VAV3): 960 nM
Kd ([1]; protein YES1): 22 nM
interaction with the SH2/PTB domain panel ([2]; KD <= 20 µM counted as interaction): reproducibly interacted at high affinity with many SH2 domains
SH2 domains found to interact ([2]; high-confidence interactions (Table S11, Figure S14)): interacted with tensin family SH2 domains

CC(C)C[C@H](NC(=O)[C@H](Cc1ccc(OP(=O)(O)O)cc1)NC(=O)[C@H](CC(C)C)NC(=O)[C@@H]1CCCN1C(=O)[C@H](CCC(=O)O)NC(=O)[C@@H](N)CC(N)=O)C(=O)N[C@@H](CC(N)=O)C(=O)N[C@H](C(=O)N[C@@H](Cc1ccccc1)C(=O)N[C@@H](C)C(=O)N[C@@H](CC(N)=O)C(=O)N[C@H](C(=O)N[C@@H](CC(=O)O)C(=O)O)[C@@H](C)O)[C@@H](C)O [ErbB4 1208 13-mer] (HELM PEPTIDE1{N.E.P.L.[O=C([C@H](Cc1ccc(OP(=O)(O)O)cc1)N[*:1])[*:2]].L.N.T.F.A.N.T.D}$$$$V2.0)
Kd [3]: 5110 nM
Kd ([4]; Mean KD, protein GRB7, high-confidence ErbB interactions, mean of replicate hits): 8960 nM
Kd [5]: 11300 nM

CSCC[C@H](NC(=O)[C@H](Cc1ccc(O)cc1)NC(=O)[C@H](CCC(=O)O)NC(=O)[C@H](Cc1ccc(OP(=O)(O)O)cc1)NC(=O)[C@H](CCC(=O)O)NC(=O)[C@H](CCC(=O)O)NC(=O)[C@H](CC(=O)O)NC(=O)[C@@H](N)CCC(=O)O)C(=O)N[C@@H](CC(N)=O)C(=O)N[C@@H](CCCNC(=N)N)C(=O)N[C@@H](CCCNC(=N)N)C(=O)N[C@@H](CCCNC(=N)N)C(=O)N[C@@H](CC(=O)O)C(=O)O [ErbB3 pY1197] (HELM PEPTIDE1{E.D.E.E.[O=C([C@H](Cc1ccc(OP(=O)(O)O)cc1)N[*:1])[*:2]].E.Y.M.N.R.R.R.D}$$$$V2.0)
Kd ([4]; KD for GRB7, FP saturation assay): ≤ 100 nM
